Legend:
Format in all cases: cell-based
[1] = tested on: MCF-7 McGuire (Estrogen Responsive Human Breast Cancer Cell Line); assay: Inhibition of DNA synthesis (3H-TdR uptake) / proliferation, MCF-7; settings: for inhibition at 0.1 µg/mL / inhibition at 1 µg/mL / inhibition at 5 µg/mL / inhibition at 10 µg/mL / inhibition at 20 µg/mL: Homo sapiens, MCF7, 48 h; for inhibition at 0.1 µg/mL: MCF-7, 0.1 μg/mL; for inhibition at 1 µg/mL: MCF-7, 1 μg/mL
Protocol: (§1) Cells were cultured in the following media: 1) MDA MB 435 cells were cultured in Minimum Essential Media (MEM-HyClone, Logan, Utah) supplemented with 5% heat inactivated fetal bovine serum (HyClone), 2 mM glutamine (Sigma, St. Louis, Mo.), 1 mM sodium pyruvate (Sigma), 1X MEM Non-Essential Amino Acids (Sigma), 2X MEM Vitamins (Sigma), and 100 IU/mL penicillin/100 μg/mL streptomycin (HyClone); 2) MCF-7 McGuire cells were cultured in Minimum Essential Media (MEM-HyClone, Logan, Utah) supplemented with 5% heat inactivated fetal bovine serum (HyClone), 2 mM glutamine (Sigma, St. Louis, Mo.), and 100 IU/mL penicillin/100 μg/mL streptomycin (HyClone); 3) HL-60 cells were cultured in Iscoves Modified Dulbecco's Media (IMDM-HyClone, Logan, Utah) supplemented with 5% heat inactivated fetal bovine serum (HyClone), 2 mM glutamine (Sigma, St. Louis, Mo.), 1 mM sodium pyruvate (Sigma), 1X MEM Non-Essential Amino Acids (Sigma), 2X MEM Vitamins (Sigma), and 100 IU/mL penicillin/100 μg/mL streptomycin (HyClone); 2) MCF-7 McGuire cells were cultured in Minimum Essential Media (MEM-HyClone, Logan, Utah) supplemented with 5% heat inactivated fetal bovine serum (HyClone), 2 mM glutamine (Sigma, St. Louis, Mo.), and 100 IU/mL penicillin/100 μg/mL streptomycin (HyClone); 3) HL-60 cells were cultured in Iscoves Modified Dulbecco's Media (IMDM-HyClone, Logan, Utah) supplemented with 5% heat inactivated fetal bovine serum (HyClone), 2 mM glutamine (Sigma, St. Louis, Mo.), and 100 IU/mL penicillin/100 μg/mL streptomycin (HyClone).
(§2) All compounds were handled as if they were light sensitive. All compounds were initially dissolved in absolute ethanol and subsequently diluted to a final concentration of 0.5% ethanol with the appropriate medium.
(§3) For the bioassay, all cells were used at 2.5×10^5 /mL. Cells were treated with each of the compounds at concentrations of 20, 10, 5, 1, 0.1, and 0.01 μg/mL , and 200 μl of each treatment group were plated in quadruplicate in a 96 well culture plate (Corning, Corning N.Y.). Plates were done in duplicate, one plate to be used for viability testing and the other plate to examine ^3 H-TdR uptake (DNA synthesis).
(§4) Plates were cultured for 48 hours at 37° C., 5% CO2. Eight hours prior to the end of incubation, ^3 H-TdR was added to one of the duplicate plates and incubation continued for 8 hours. The cells were then harvested (trypsinization was required to harvest MDA MB 435 and MCF-7 McGuire). At the end of the incubation, the cells were removed from the wells (of the duplicate plate--no radioisotope added) and viability checked by the Trypan Blue Exclusion method. Percent viability and percent suppression of each treatment group were calculated.
(§5) With respect to the data shown in the Tables below, the data is arranged from greatest percent inhibition of DNA synthesis to lowest. […] "NT" refers to "Not Tested". The cells were cultured for 48 hours, pulsed 8 hours with tritiated thymidine, harvested and counted. MDA MB 435 is the abbreviation for the Metastic Human Breast Cancer Cell Line. MCF-7 McGuire is the abbreviation for the Estrogen Responsive Human Breast Cancer Cell Line and HL-60 is the Human Promyelocytic Leukemia Cell Line.

[2] = tested on: MDA MB 435 (Metastic Human Breast Cancer Cell Line); assay: Inhibition of DNA synthesis (3H-TdR uptake) / proliferation, MB-435; settings: for inhibition at 0.1 µg/mL / inhibition at 1 µg/mL / inhibition at 5 µg/mL / inhibition at 10 µg/mL / inhibition at 20 µg/mL: Homo sapiens, MDA-MB-435, 48 h; for inhibition at 0.1 µg/mL: MB-435, 0.1 μg/mL; for inhibition at 1 µg/mL: MB-435, 1 μg/mL
Protocol: as §1, §2, §3, §4, §5

[3] = tested on: HL-60 (Human Promyelocytic Leukemia Cell Line); assay: Inhibition of DNA synthesis (3H-TdR uptake) / proliferation, HL-60; settings: for inhibition at 0.1 µg/mL / inhibition at 1 µg/mL / inhibition at 5 µg/mL / inhibition at 10 µg/mL / inhibition at 20 µg/mL: Homo sapiens, 48 h; for inhibition at 0.1 µg/mL: HL-60, 0.1 μg/mL; for inhibition at 1 µg/mL: HL-60, 1 μg/mL; for inhibition at 10 µg/mL: HL-60, 10 μg/mL
Protocol: as §1, §2, §3, §4, §5

| SMILES | inhibition at 0.1 µg/mL [1] | inhibition at 1 µg/mL [1] | inhibition at 5 µg/mL ([1]; MCF-7, 5 μg/mL) | inhibition at 10 µg/mL ([1]; MCF-7, 10 μg/mL) | inhibition at 20 µg/mL ([1]; MCF-7, 20 μg/mL) | inhibition at 0.1 µg/mL [2] | inhibition at 1 µg/mL [2] | inhibition at 5 µg/mL ([2]; MB-435, 5 μg/mL) | inhibition at 10 µg/mL ([2]; MB-435, 10 μg/mL) | inhibition at 20 µg/mL ([2]; MB-435, 20 μg/mL) | inhibition of proliferation (in words) ([2]; MB-435, 20 μg/mL) | inhibition of proliferation (in words) ([3]; HL-60, 20 μg/mL) | inhibition at 0.1 µg/mL [3] | inhibition at 1 µg/mL [3] | inhibition at 5 µg/mL ([3]; HL-60, 5 μg/mL) | inhibition at 10 µg/mL [3] | inhibition at 20 µg/mL ([3]; HL-60, 20 μg/mL) | further results |
| --- | --- | --- | --- | --- | --- | --- | --- | --- | --- | --- | --- | --- | --- | --- | --- | --- | --- | --- |
| Cc1cc2c(C)c(O)c(C)c(C)c2o1 [Compound 33, 5-Hydroxy-2,4,6,7-tetramethylbenzofuran] | 19% | 0% | 0% | 16% | 72% | 1% | 2% | 8% | 16% | 42% | significantly inhibited the proliferation | significantly inhibited the proliferation | 0% | 0% | 0% | 7% | 36% | inhibition of proliferation (in words) ([1]; MCF-7, 20 μg/mL): significantly inhibited the proliferation |
| CC(=O)N1CC(C)(C)c2c1cc(C)c(O)c2C [Compound 16, N-Acetyl-5-hydroxy-3,3,4,6-tetramethylindoline] | – | – | – | – | – | 0% | 1% | 9% | 18% | 31% | – | – | 0% | 0% | 11% | 11% | 15% | inhibition of proliferation (in words) ([2]; MB-435, 5-20 μg/mL): significantly inhibited the proliferation; inhibition of proliferation (in words) ([3]; HL-60, 5-20 μg/mL): significantly inhibited the proliferation |
| Cc1cc2c(c(C)c1O)C(C)CN2C(=O)C(C)(C)C (centres unmarked) [Compound 11c, N-Pivaloyl-5-hydroxy-3,4,6-trimethylindoline] | 18% | 1% | 9% | 31% | 43% | 13% | 12% | 20% | 12% | 31% | – | – | 0% | 0% | 0% | 0% | 0% | – |
| Cc1cc2c(c(C)c1O)C(C)CN2C(=O)C(C)C (centres unmarked) [Compound 11b, N-Isobutyryl-5-hydroxy-3,4,6-trimethylindoline] | 24% | 26% | 47% | 33% | 53% | 0% | 21% | 21% | 22% | 36% | – | – | 0% | 0% | 0% | 0% | 0% | inhibition of proliferation (in words) ([1]; MCF-7, 5 μg/mL): significantly inhibited the proliferation; inhibition of proliferation (in words) ([2]; MB-435, 10 μg/mL): significantly inhibited the proliferation; effect on HL-60 cells (in words) ([3]; HL-60, no dose stated): virtually no effect |
| Cc1cc2c(c(C)c1O)C(C)(C)CN2C(=O)C(C)(C)C [Compound 20, N-Pivaloyl-5-hydroxy-3,3,4,6-tetramethylindoline] | – | – | – | – | – | -1% | -5% | -1% | -13% | 31% | inhibited the proliferation | inhibited the proliferation | 2% | 6% | 18% | 33% | 63% | – |
| CC(C)(C)c1cc2c(c(C(C)(C)C)c1O)CC(=O)O2 [Compound 24, 4,6-Di-tert-butyl-2,3-dihydro-5-hydroxy-2(3H)-benzofuranone] | 0% | 4% | 25% | 85% | 97% | 13% | 5% | 29% | 85% | 97% | – | significantly inhibited the proliferation | 7% | 0% | 5% | 30% | 47% | inhibition of proliferation (in words) ([1]; MCF-7, 10 μg/mL): significantly inhibited the proliferation; inhibition of proliferation (in words) ([2]; MB-435, 10 μg/mL): significantly inhibited the proliferation |
| Cc1c(O)c(C)c2c(C)cn(C(=O)C(C)(C)C)c2c1C [Compound 27, N-Pivaloyl-5-hydroxy-3,4,6,7-tetramethylindole] | 0% | 14% | 57% | 86% | – | 4% | 15% | 54% | 91% | 97% | – | – | 0% | 12% | 61% | 91% | 97% | inhibition of proliferation (in words) ([1]; MCF-7, 5 μg/mL): significantly inhibited the proliferation; inhibition of proliferation (in words) ([2]; MB-435, 5 μg/mL): significantly inhibited the proliferation; inhibition of proliferation (in words) ([3]; HL-60, 5 μg/mL): significantly inhibited the proliferation |
| COc1c(C)cc2c(c1C)C(C)CN2C(=O)C(C)C (centres unmarked) [Compound 13, N-Isobutyryl-5-methoxy-3,4,6-trimethylindoline] | – | – | – | – | – | 4% | -4% | 8% | 17% | 45% | inhibited the proliferation | inhibited the proliferation | 0% | 10% | 15% | 27% | 53% | – |

— US5674876A, “.rho.-heteroatom-substituted phenols and uses thereof” (Research Development Foundation, priority 1995, dated 1997)
